Experimental data published in patent publication US8680159B2, “Bradykinin 1 receptor modulating compounds” (Gruenenthal GmbH, priority 2010, dated 2014).

Each molecule was assayed against T1, B1R receptor of the rat (CHO K1 cells stably transfected with the B1R gene of the rat) (Rattus norvegicus, UniProt P97583) (assay: Functional study on the bradykinin receptor 1 (B1R), Ca2+ fluorescence (Fluo-4) FLIPR/Novostar assay, rB1R cells). Settings: 10 μM.
T1 construct: expressed in transfected cells; host or cells: CHO K1 cells (Chinese hamster ovary), stably transfected
T1 sequence (P97583 1-337): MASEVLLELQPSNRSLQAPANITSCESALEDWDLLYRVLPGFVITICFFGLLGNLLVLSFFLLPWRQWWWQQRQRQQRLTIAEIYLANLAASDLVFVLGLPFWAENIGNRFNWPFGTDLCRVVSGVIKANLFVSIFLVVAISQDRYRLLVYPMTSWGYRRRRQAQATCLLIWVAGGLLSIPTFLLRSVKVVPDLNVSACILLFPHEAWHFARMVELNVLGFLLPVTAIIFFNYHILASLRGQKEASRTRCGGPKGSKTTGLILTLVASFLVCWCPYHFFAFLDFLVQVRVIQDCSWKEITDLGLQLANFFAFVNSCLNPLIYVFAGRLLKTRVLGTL
Type: cell-based
Method: The agonistic or antagonistic action of substances can be quantified on the bradykinin receptor 1 (B1R) of the species human and rat using ectopically expressing cell lines (CHO K1 cells) and with the aid of a Ca^2+-sensitive dye (Fluo-4) using a fluorescent imaging plate reader (FLIPR). The indication in % activation is based on the Ca^2+ signal after addition of Lys-Des-Arg^9-bradykinin (0.5 nM) or Des-Arg^9-bradykinin (100 nM). Antagonists lead to suppression of the Ca^2+ influx after the addition of the agonist. % Inhibition compared with the maximum achievable inhibition is indicated.
The agonistic or antagonistic action of substances can be determined on the bradykinin receptor 1 (B1R) of the species human and rat using the following assay. According to this assay, the increase in intracellular Ca^2+ following administration of a B1R agonist is quantified with the aid of a Ca^2+-sensitive dye (Fluo-4 type, Molecular Probes Europe BV, Leiden, Netherlands) using a Fluorescent Imaging Plate Reader (FLIPR, Molecular Devices, Sunnyvale, USA) and/or using a Novostar (BMG Labtech GmbH, Offenburg, Germany).
Chinese hamster ovary cells (CHO K1 cells) which have been stably transfected with the human B1R gene (hB1R cells) or with the B1R gene of the rat (rB1R cells) are used. For functional studies, the cells are plated out on black 96-well plates having a clear base (BD Biosciences, Heidelberg, Germany or Greiner, Frickenhausen, Germany) in a density of 20,000-35,000 cells/well. The cells are left overnight at 37° C. and with 5% CO2 in culture medium (hB1R cells: Nutrient Mixture Ham's F12, Gibco Invitrogen GmbH, Karlsruhe, Germany or DMEM, Sigma-Aldrich, Taufkirchen, Germany; rB1R cells: D-MEM/F12, Gibco Invitrogen GmbH, Karlsruhe, Germany), with 10 vol. % FBS (fetal bovine serum, Gibco Invitrogen GmbH, Karlsruhe, Germany or PAN Biotech GmbH, Aidenbach, Germany). On the following day, the cells are loaded for 60 minutes at 37° C. with 2.13 μM Fluo-4 (Molecular Probes Europe BV, Leiden, Netherlands) in HBSS buffer (Hank's buffered saline solution, Gibco Invitrogen GmbH, Karlsruhe, Germany) […] (Sigma-Aldrich, Taufkirchen, Germany) and 10 mM HEPES (Sigma-Aldrich, Taufkirchen, Germany). The plates are then washed twice with HBSS buffer, and HBSS buffer additionally containing 0.1% BSA (bovine serum albumin; Sigma-Aldrich, Taufkirchen, Germany), 5.6 mM glucose and 0.05% gelatin (Merck KGaA, Darmstadt, Germany) is added to the plates. After incubation for a further 20 minutes at room temperature, the plates are inserted into the FLIPR or Novostar for Ca^2+ measurement. Alternatively, washing is carried out with buffer A (15 mM HEPES, 80 mM NaCl, 5 mM KCl, 1.2 mM CaCl2, 0.7 mM MgSO4, 2 g/l glucose, 2.5 mM probenecid) followed by loading with buffer A with added 2.5 μM Fluo-4 and 0.025% Pluronic F127 (Sigma-Aldrich, Taufkirchen, Germany). The cells are then washed twice with buffer A and incubated for 30 minutes at room temperature with buffer A additionally containing 0.05% BSA and 0.05% gelatin and are then inserted into the FLIPR or Novostar for Ca^2+ measurement. The Ca^2+-dependent fluorescence is measured before and after the addition of substances (λex=488 nm, λem=540 nm). Quantification is carried out by measuring the highest fluorescence intensity (FC, fluorescence counts) over time.
The FLIPR protocol consists of 2 substance additions, which are pipetted in the FLIPR. In the case of measurements using the Novostar, only the second substance addition is pipetted in the device. Both devices measure the fluorescence intensity over time. Test substances (10 μM) are first pipetted onto the cells and the intracellular Ca^2+ increase is compared with the control (hB1R: Lys-Des-Arg^9-bradykinin>=50 nM; rB1R: Des-Arg^9-bradykinin>=1 μM). This gives the % activation, based on the Ca^2+ signal after addition of Lys-Des-Arg^9-bradykinin (>=50 nM) or Des-Arg^9-bradykinin (>=1 μM). […]
`CN(C(=O)NC1CC(C)(C)c2ccc(C(=O)N(C)C3CCN(c4ccncc4)CC3)cc21)c1ccccc1Cl` (stereo not shown) [CC_H-245, 3-[[(2-Chlorophenyl)-methyl-carbamoyl]amino]-N,1,1-trimethyl-N-(1-pyridin-4-yl-piperidin-4-yl)-2,3-dihydro-indene-5-carboxylic acid amide] was tested, and the “% Inhibition (r-B1R) at 10 μM” value was 107%. With `CN(C(=O)c1ccc2c(c1)C(NC(=O)c1c(Cl)cccc1C(F)(F)F)CCC2)C1CCN(c2ccncc2)CC1` (stereo not shown) [CC_H-249, 8-[[2-Chloro-6-(trifluoromethyl)-benzoyl]amino]-N-methyl-N-(1-pyridin-4-yl-piperidin-4-yl)-5,6,7,8-tetrahydro-naphthalene-2-carboxylic acid amide] the “% Inhibition (r-B1R) at 10 μM” value was 110%.

Same assay, conditions: CHO-K1, 10 μM, read-out: % Inhibition (r-B1R) at 10 μM
`CN(C(=O)c1ccc2c(c1)C(NC(=O)Nc1ccccc1Cl)CC2(C)C)C1CCN(c2ccncc2)CC1` (stereo not shown) [CC_H-232, 3-[[(2-Chlorophenyl)-carbamoyl]amino]-N,1,1-trimethyl-N-(1-pyridin-4-yl-piperidin-4-yl)-2,3-dihydro-indene-5-carboxylic acid amide] was tested, and the inhibition at 10 µM was 96%. For `CN(C(=O)c1ccc2c(c1)C(NC(=O)Nc1cccc(Cl)c1)CC2(C)C)C1CCN(c2ccncc2)CC1` (stereo not shown) [CC_H-233, 3-[[(3-Chlorophenyl)-carbamoyl]amino]-N,1,1-trimethyl-N-(1-pyridin-4-yl-piperidin-4-yl)-2,3-dihydro-indene-5-carboxylic acid amide], the inhibition at 10 µM was 63%. `CN(C(=O)c1ccc2c(c1)C(NC(=O)Nc1c(Cl)cccc1Cl)CC2(C)C)C1CCN(c2ccncc2)CC1` (stereo not shown) [CC_H-234, 3-[[(2,6-Dichloro-phenyl)-carbamoyl]amino]-N,1,1-trimethyl-N-(1-pyridin-4-yl-piperidin-4-yl)-2,3-dihydro-indene-5-carboxylic acid amide] showed an inhibition at 10 µM of 108%. In the case of `CN(C(=O)c1ccc2c(c1)C(NC(=O)Nc1cccc(Cl)c1Cl)CC2(C)C)C1CCN(c2ccncc2)CC1` (stereo not shown) [CC_H-235, 3-[[(2,3-Dichloro-phenyl)-carbamoyl]amino]-N,1,1-trimethyl-N-(1-pyridin-4-yl-piperidin-4-yl)-2,3-dihydro-indene-5-carboxylic acid amide], the inhibition at 10 µM is reported as 65%. For `CN(C(=O)c1ccc2c(c1)C(NC(=O)Nc1cc(Cl)ccc1Cl)CC2(C)C)C1CCN(c2ccncc2)CC1` (stereo not shown) [CC_H-236, 3-[[(2,5-Dichloro-phenyl)-carbamoyl]amino]-N,1,1-trimethyl-N-(1-pyridin-4-yl-piperidin-4-yl)-2,3-dihydro-indene-5-carboxylic acid amide], the inhibition at 10 µM was 52%. `CN(C(=O)c1ccc2c(c1)C(NC(=O)Nc1ccc(F)c(Cl)c1)CC2(C)C)C1CCN(c2ccncc2)CC1` (stereo not shown) [CC_H-242, 3-[[(3-Chloro-4-fluoro-phenyl)-carbamoyl]amino]-N,1,1-trimethyl-N-(1-pyridin-4-yl-piperidin-4-yl)-2,3-dihydro-indene-5-carboxylic acid amide] showed an inhibition at 10 µM of 52%. In the case of `CN(C(=O)c1ccc2c(c1)C(NC(=O)c1cc(F)ccc1Cl)CCC2)C1CCN(c2ccncc2)CC1` (stereo not shown) [CC_H-246, 8-[(2-Chloro-5-fluoro-benzoyl)amino]-N-methyl-N-(1-pyridin-4-yl-piperidin-4-yl)-5,6,7,8-tetrahydro-naphthalene-2-carboxylic acid amide], the inhibition at 10 µM is reported as 112%. `CN(C(=O)c1ccc2c(c1)C(NC(=O)c1cc(C(F)(F)F)ccc1Cl)CCC2)C1CCN(c2ccncc2)CC1` (stereo not shown) [CC_H-247, 8-[[2-Chloro-5-(trifluoromethyl)-benzoyl]amino]-N-methyl-N-(1-pyridin-4-yl-piperidin-4-yl)-5,6,7,8-tetrahydro-naphthalene-2-carboxylic acid amide] gave an inhibition at 10 µM of 112%. Work on `Cc1ccc(F)c(C(=O)NC2CCCc3ccc(C(=O)N(C)C4CCN(c5ccncc5)CC4)cc32)c1Cl` (stereo not shown) [CC_H-248, 8-[(2-Chloro-6-fluoro-3-methyl-benzoyl)amino]-N-methyl-N-(1-pyridin-4-yl-piperidin-4-yl)-5,6,7,8-tetrahydro-naphthalene-2-carboxylic acid amide] yielded an inhibition at 10 µM of 111%. `CN(C(=O)c1ccc2c(c1)C(NC(=O)C1CC1)CCC2)C1CCN(c2ccncc2)CC1` (stereo not shown) [CC_H-250, 8-(Cyclopropanecarbonylamino)-N-methyl-N-(1-pyridin-4-yl-piperidin-4-yl)-5,6,7,8-tetrahydro-naphthalene-2-carboxylic acid amide] showed an inhibition at 10 µM of 103%. In the case of `CN(C(=O)c1ccc2c(c1)C(NC(=O)CC(C)(C)C)CCC2)C1CCN(c2ccncc2)CC1` (stereo not shown) [CC_H-251, 8-(3,3-Dimethyl-butanoylamino)-N-methyl-N-(1-pyridin-4-yl-piperidin-4-yl)-5,6,7,8-tetrahydro-naphthalene-2-carboxylic acid amide], the inhibition at 10 µM is reported as 111%. `COCC(=O)NC1CCCc2ccc(C(=O)N(C)C3CCN(c4ccncc4)CC3)cc21` (stereo not shown) [CC_H-252, 8-[(2-Methoxy-acetyl)amino]-N-methyl-N-(1-pyridin-4-yl-piperidin-4-yl)-5,6,7,8-tetrahydro-naphthalene-2-carboxylic acid amide] gave an inhibition at 10 µM of 107%. With `CC(=O)NC1CCCc2ccc(C(=O)N(C)C3CCN(c4ccncc4)CC3)cc21` (stereo not shown) [CC_H-253, 8-Acetylamino-N-methyl-N-(1-pyridin-4-yl-piperidin-4-yl)-5,6,7,8-tetrahydro-naphthalene-2-carboxylic acid amide] the inhibition at 10 µM was 110%. In the case of `CN(C(=O)c1ccc2c(c1)C(NC(=O)c1cccc(C(F)(F)F)c1Cl)CCC2)C1CCN(c2ccncc2)CC1` (stereo not shown) [CC_H-254, 8-[[2-Chloro-3-(trifluoromethyl)-benzoyl]amino]-N-methyl-N-(1-pyridin-4-yl-piperidin-4-yl)-5,6,7,8-tetrahydro-naphthalene-2-carboxylic acid amide], the inhibition at 10 µM is reported as 111%. For `CN(C(=O)c1ccc2c(c1)C(NC(=O)Nc1ccccc1Cl)CCC2)C1CCN(c2ccncc2)CC1` (stereo not shown) [CC_H-255, 8-[[(2-Chlorophenyl)-carbamoyl]amino]-N-methyl-N-(1-pyridin-4-yl-piperidin-4-yl)-5,6,7,8-tetrahydro-naphthalene-2-carboxylic acid amide], the inhibition at 10 µM was 104%. `CN(C(=O)c1ccc2c(c1)C(NC(=O)Nc1cccc(Cl)c1)CCC2)C1CCN(c2ccncc2)CC1` (stereo not shown) [CC_H-256, 8-[[(3-Chlorophenyl)-carbamoyl]amino]-N-methyl-N-(1-pyridin-4-yl-piperidin-4-yl)-5,6,7,8-tetrahydro-naphthalene-2-carboxylic acid amide] was tested, and the inhibition at 10 µM was 96%. In the case of `CN(C(=O)c1ccc2c(c1)C(NC(=O)Nc1c(Cl)cccc1Cl)CCC2)C1CCN(c2ccncc2)CC1` (stereo not shown) [CC_H-257, 8-[[(2,6-Dichloro-phenyl)-carbamoyl]amino]-N-methyl-N-(1-pyridin-4-yl-piperidin-4-yl)-5,6,7,8-tetrahydro-naphthalene-2-carboxylic acid amide], the inhibition at 10 µM is reported as 107%.
